The target in this assay is Recombinant Human Enteropeptidase (Homo sapiens (Human), UniProt P98073). The assay is described as follows: Enteropeptidase Inhibition Assay. The format is biochemical. As to conditions: substrate Acetyl-Asp-Asp-Asp-Asp-Lys-AFC 30 μM, 30° C., 1 hour; Ki calculated from IC50 using Cheng-Prusoff equation. The protocol: Enteropeptidase Inhibition Assay
The inhibitory activity of the enteropeptidase inhibitor synthesized using the purified Recombinant Human Enteropeptidase and the substrate Acetyl-Asp-Asp-Asp-Asp-Lys-AFC (BioVision) was measured. 7.2 ng/mL of Enteropeptidase diluted with a buffer (20 mM Tris, 50 mM NaCl, pH 7.5) in a 96 well plate (Costar), 30 μM of Acetyl-Asp-Asp-Asp-Asp-Lys-AFC, several concentrations of Enteropeptidase inhibitors (1% DMSO concentration) were dispensed such that a final volume was 100 μL, and then the enzyme reaction was carried out at 30° C. for 1 hour. At this time, 1% DMSO, a substrate and Enteropeptidase instead of the compound were dispensed onto positive control wells, and 1% DMSO and a substrate were dispensed onto negative control wells. The enzyme reaction was […] using an excitation wavelength of 380 nm and an emission wavelength of 500 nm in a fluorescence spectrometer, and then the rate of increase in fluorescence (milli-units per min) between 20 and 60 minutes was measured.
The fluorescence measurement values reduced by the inhibitor diluted at each concentration were converted into relative values % of the positive control group (100% reactivity) and the negative control group (0% reactivity), and used to calculate IC50 values. IC50 is the concentration of the inhibitor that inhibits the enzyme activity by 50%, and was calculated using PRISM (GraphPad). Ki values were calculated from the IC50 values using Cheng-Prusoff equation.

Sequence of Recombinant Human Enteropeptidase (P98073 whole entry): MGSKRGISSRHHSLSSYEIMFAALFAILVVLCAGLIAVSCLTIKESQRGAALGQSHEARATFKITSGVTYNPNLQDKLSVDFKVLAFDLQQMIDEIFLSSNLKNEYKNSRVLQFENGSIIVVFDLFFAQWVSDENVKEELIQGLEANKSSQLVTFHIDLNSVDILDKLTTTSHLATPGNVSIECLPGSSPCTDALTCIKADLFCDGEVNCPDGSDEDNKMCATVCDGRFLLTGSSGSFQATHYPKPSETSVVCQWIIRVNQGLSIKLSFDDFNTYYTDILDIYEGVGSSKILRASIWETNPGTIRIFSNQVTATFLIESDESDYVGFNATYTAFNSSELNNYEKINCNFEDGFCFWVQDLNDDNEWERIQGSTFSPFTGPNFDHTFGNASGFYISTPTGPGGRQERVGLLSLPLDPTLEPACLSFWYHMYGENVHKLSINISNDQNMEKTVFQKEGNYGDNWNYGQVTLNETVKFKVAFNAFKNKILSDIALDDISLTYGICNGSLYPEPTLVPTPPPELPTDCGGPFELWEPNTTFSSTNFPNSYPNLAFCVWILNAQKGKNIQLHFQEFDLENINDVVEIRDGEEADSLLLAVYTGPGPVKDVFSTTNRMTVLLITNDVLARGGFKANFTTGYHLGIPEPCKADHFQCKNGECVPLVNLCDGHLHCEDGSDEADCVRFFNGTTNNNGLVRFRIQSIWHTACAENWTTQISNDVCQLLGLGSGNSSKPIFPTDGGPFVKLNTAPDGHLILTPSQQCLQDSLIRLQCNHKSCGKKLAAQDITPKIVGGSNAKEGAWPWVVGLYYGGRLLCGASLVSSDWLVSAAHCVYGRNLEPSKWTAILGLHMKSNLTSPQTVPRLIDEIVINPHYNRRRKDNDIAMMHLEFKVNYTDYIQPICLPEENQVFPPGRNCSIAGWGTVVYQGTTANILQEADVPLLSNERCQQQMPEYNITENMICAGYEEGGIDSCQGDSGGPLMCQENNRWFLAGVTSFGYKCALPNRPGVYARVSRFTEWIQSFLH

Take `N=C(N)c1ccc(OC(=O)c2ccc3nc(N4CCC(NC(=O)c5ccccc5)CC4)sc3c2)c(F)c1` [Example 82, 4-Carbamimidoyl-2-fluorophenyl 2-(4-benzoamidopiperidin-1-yl)benzo[d]thiazole-6-carboxylate]: the Ki is 1.9 nM.
As for `CCN(CCC(=O)O)c1nc2ccc(C(=O)Oc3ccc(C(=N)N)cc3)cc2s1` [Example 66, 3-((6-((4-Carbamimidoylphenoxy)carbonyl)benzo[d]thiazol-2-yl)(ethyl)amino)propanoic Acid], the Ki is 4.8 nM.
Consider `COC(=O)CCCN(C)C(=O)C1CCN(c2ncc(C(=O)Oc3ccc(C(=N)N)cc3F)s2)CC1` [Example 41, 4-Carbamimidoyl-2-fluorophenyl 2-(4-((4-methoxy-4-oxobutyl)(methyl)carbamoyl)piperidin-1-yl)thiazole-5-carboxylate], for which the Ki is 1.8 nM.
The figure for `COC(=O)C(C)(C)CNC(=O)C1CCN(c2ncc(C(=O)Oc3ccc(C(=N)N)cc3F)s2)CC1` [Example 39, 4-Carbamimidoyl-2-fluorophenyl 2-(4-((3-methoxy-2,2-dimethyl-3-oxopropyl)carbamoyl)piperidin-1-yl)thiazole-5-carboxylate] is 2.5 nM.
As to `COc1ccc(NC(=O)C2CCN(c3ncc(C(=O)Oc4ccc(C(=N)N)cc4)s3)CC2)cc1` [Example 40, 4-carbamimidoylphenyl 2-(4-((4-methoxyphenyl)carbamoyl)piperidin-1-yl)thiazole-5-carboxylate], the inhibition constant Ki is 9.7 nM.
To `N=C(N)c1ccc(OC(=O)c2cnc(N3CCC(NC(=O)c4ccccc4)CC3)s2)cc1` [Example 28, 4-Carbamimidoylphenyl 2-(4-benzamidopiperidin-1-yl)thiazole-5-carboxylate] belongs 6.5 nM; to `COC(=O)CCCN(C)c1ncc(C(=O)Oc2ccc(C(=N)N)cc2F)s1` [Example 21, 4-Carbamimidoyl-2-fluorophenyl 2-((4-methoxy-4-oxobutyl)(methyl)amino)thiazole-5-carboxylate], 3 nM.
Take `COC(=O)CCCN(C)c1nc2ccc(C(=O)Oc3ccc(C(=N)N)cc3F)cc2s1` [Example 71, 4-Carbamimidoyl-2-fluorophenyl 2-((4-methoxy-4-oxobutyl)(methyl)amino)benzo[d]thiazole-6-carboxylate]: the inhibitory constant (Ki) is 1.1 nM.
On to `COC(=O)CCNc1nc2ccc(C(=O)Oc3ccc(C(=N)N)cc3)cc2s1` [Example 59, 4-Carbamimidoylphenyl 2-((3-methoxy-3-oxopropyl)amino)benzo[d]thiazole-6-carboxylate], for which the Ki was 14 nM.
The figure for `CN(CCCC(=O)O)c1ncc(C(=O)Oc2ccc(C(=N)N)cc2F)s1` [Example 22, 4-((5-((4-Carbamimidoyl-2-fluorophenoxy)carbonyl)thiazol-2-yl)(methyl)amino)butanoic Acid] is 0.57 nM; for `N=C(N)c1ccc(OC(=O)c2ccc3nc(N4CCC(C(=O)O)CC4)sc3c2)cc1` [Example 58, 1-(6-((4-Carbamimidoylphenoxy)carbonyl)benzo[d]thiazol-2-yl)piperidine-4-carboxylic Acid] it is 7.4 nM.
With `CCN(CCC(=O)N[C@@H](CC(=O)OC(C)(C)C)C(=O)OC(C)(C)C)c1ncc(C(=O)Oc2ccc(C(=N)N)cc2F)s1` [Example 46, Di-tert-butyl(3-((5-((4-carbamimidoyl-2-fluorophenoxy)carbonyl)thiazol-2-yl)(ethyl)amino)propanoyl)-L-aspartate], the Ki is 40 nM.
Take `COC(=O)CCCN(C)C(=O)C1CCN(c2ncc(C(=O)Oc3ccc(C(=N)N)cc3)s2)CC1` [Example 31, 4-Carbamimidoylphenyl 2-(4-((4-methoxy-4-oxobutyl)(methyl)carbamoyl)piperidin-1-yl)thiazole-5-carboxylate]: the Ki is 17 nM.
The figure for `COC(=O)C1CCN(c2ncc(C(=O)Oc3ccc(C(=N)N)cc3)s2)C1` (stereo not drawn) [Example 16, 4-Carbamimidoylphenyl 2-(3-(methoxycarbonyl)pyrrolidin-1-yl)thiazole-5-carboxylate] is 19 nM.
For `N=C(N)c1ccc(OC(=O)c2cnc(N3CCC(C(=O)O)CC3)s2)cc1` [Example 2, 1-(5-((4-Carbamimidoylphenoxy)carbonyl)thiazol-2-yl)piperidine-4-carboxylic Acid], the Ki was 4.9 nM.
On to `CN(CCC(=O)O)c1ncc(C(=O)Oc2ccc(C(=N)N)cc2)s1` [Example 9], for which the Ki was 28 nM.
The figure for `CCN(CCC(=O)N[C@@H](CC(=O)O)C(=O)O)c1ncc(C(=O)Oc2ccc(C(=N)N)cc2F)s1` [Example 47, (3-((5-((4-Carbamimidoyl-2-fluorophenoxy)carbonyl)thiazol-2-yl)(ethyl)amino)propanoyl)-L-aspartic Acid] is 0.52 nM; for `N=C(N)c1ccc(OC(=O)c2ccc3nc(NCCC(=O)O)sc3c2)cc1` [Example 65, 3-((6-((4-Carbamimidoylphenoxy)carbonyl)benzo[d]thiazol-2-yl)amino)propanoic Acid] it is 5.7 nM.
Regarding `CN(CCC(=O)O)c1nc2ccc(C(=O)Oc3ccc(C(=N)N)cc3)cc2s1` [Example 62, 3-((6-((4-Carbamimidoylphenoxy)carbonyl)benzo[d]thiazol-2-yl)(methyl)amino)propanoic Acid], the Ki is 4.3 nM.
In the case of `COC(=O)C(C)(C)CN(C)c1ncc(C(=O)Oc2ccc(C(=N)N)cc2)s1` [Example 18, 4-Carbamimidoylphenyl 2-((3-methoxy-2,2-dimethyl-3-oxopropyl)(methyl)amino)thiazole-5-carboxylate], the Ki was 8.9 nM.
To `CN(CCCC(=O)O)C(=O)C1CCN(c2ncc(C(=O)Oc3ccc(C(=N)N)cc3F)s2)CC1` [Example 44, 4-(1-(5-((4-carbamimidoyl-2-fluorophenoxy)carbonyl)thiazol-2-yl)-N-methylpiperidine-4-carboxamido)butanoic Acid] belongs 1.6 nM; to `COC(=O)CCNc1ncc(C(=O)Oc2ccc(C(=N)N)cc2)s1` [Example 10, 4-Carbamimidoylphenyl 2-((3-methoxy-3-oxopropyl)amino)thiazole-5-carboxylate], 11 nM.
On to `CN(CC(C)(C)C(=O)O)c1nc2ccc(C(=O)Oc3ccc(C(=N)N)cc3)cc2s1` [Example 86, 3-((6-((4-Carbamimidoylphenoxy)carbonyl)benzo[d]thiazol-2-yl)(methyl)amino)-2,2-dimethylpropanoic Acid], for which the Ki is 10 nM.
Consider `COC(=O)CCN(C)c1ncc(C(=O)Oc2ccc(C(=N)N)cc2)s1` [Example 8, 4-Carbamimidoylphenyl 2-((3-methoxy-3-oxopropyl)(methyl)amino)thiazole-5-carboxylate], for which the inhibitory constant (Ki) was 28 nM.
As to `N=C(N)c1ccc(OC(=O)c2cnc(N3CCC(C(=O)NCCC(=O)O)CC3)s2)cc1` [Example 34], the Ki was 8.9 nM.
For `COC(=O)CNC(=O)C1CCN(c2ncc(C(=O)Oc3ccc(C(=N)N)cc3F)s2)CC1` [Example 37, 4-Carbamimidoyl-2-fluorophenyl 2-(4-((2-methoxy-2-oxoethyl)carbamoyl)piperidin-1-yl)thiazole-5-carboxylate], the Ki was 1.8 nM.
As for `CC(C)(CNC(=O)C1CCN(c2ncc(C(=O)Oc3ccc(C(=N)N)cc3F)s2)CC1)C(=O)O` [Example 45, 3-(1-(5-((4-Carbamimidoyl-2-fluorophenoxy)carbonyl)thiazol-2-yl)piperidine-4-carboxamido)-2,2-dimethylpropanoic Acid], the Ki was 1.5 nM.

For orientation: Ki means a measure of affinity in units of concentration, obtained from inhibition or displacement.

The record behind these values is US11447480B2, “Compound exhibiting enteropeptidase inhibitory activity” (LG CHEM, LTD., priority 2018, dated 2022).
